Results published in US7935366B2 (priority 2006, dated 2011).
Where two headings read alike, the source gives them in different places.

How the values were obtained:
[1] = type: in vivo; settings: 24 h post ip. ^131I; stable iodine given 2 h post ^131I
[2] = type: in vivo; settings: stable iodine equivalent to 100 mg/70 Kg adult per day administered orally, 2 h post i.p. ^131I
[3] = type: in vivo; settings: stable iodine equivalent to 100 mg/70 Kg adult per day mixed with diet, 2 h post i.p. ^131I
[4] = type: in vivo; settings: rats; 24 h post oral ^131I; stable iodide equivalent to 100 mg/70 Kg adult given orally 2 h post ^131I
[5] = experimental animals
[6] = some subjects; cited from earlier work
[7] = Whole body retention of ^137Cs, CKF vs Prussian Blue; type: in vivo
[8] = Percent binding capacity of *Cs at different pH; type: physicochemical
[9] = test system: DNA damage; settings: FIG. 3
[10] = test system: rat bone marrow erythrocytes; type: in vivo; settings: FIG. 2
From the text: […]. The geno-toxicity assessment of [CaK2Fe(CN)6] and Prussian Blue for the formation of micronuclei (i.e. part of parent nucleus, which is left behind in the cytoplasm as a daughter nuclei, due to damage to chromosomes during cell division).

For [K+].[O-][I+2]([O-])[O-] [KIO3], the “Percent ^131I WBR” value [1] was 40 ± 2%, the “Percent ^131I in BLOOD” value [1] was 1.6 ± 0.4% and the “Percent ^131I in CARCAS” value [1] was 17 ± 2%. The “Percent ^131I in EXCRETA” value [1] was 64 ± 5%, the “Percent ^131I in LIVER + GUT” value [1] was 16 ± 1% and the “Percent ^131I in THYROID” value [1] was 10 ± 1%. The “WHOLE BODY RETENTION OF RADIO-IODINE” value ([2]; day 1) was 28 ± 4, the “WHOLE BODY RETENTION OF RADIO-IODINE” value ([2]; day 2) was 12 ± 2 and the “WHOLE BODY RETENTION OF RADIO-IODINE” value ([2]; day 3) was 10 ± 3. The “WHOLE BODY RETENTION OF RADIO-IODINE” value ([2]; day 4) was 8 ± 1, the “WHOLE BODY RETENTION OF RADIO-IODINE” value ([2]; day 5) was 7 ± 2 and the “WHOLE BODY RETENTION OF RADIO-IODINE” value ([2]; day 6) was 7 ± 4. The “WHOLE BODY RETENTION OF RADIO-IODINE” value ([2]; day 7) was 8 ± 2, the “WHOLE BODY RETENTION OF RADIO-IODINE” value ([2]; day 9) was 6 ± 2 and the “WHOLE BODY RETENTION OF RADIO-IODINE” value ([3]; day 1) was 28 ± 3. For the same compound, the “WHOLE BODY RETENTION OF RADIO-IODINE” value ([3]; day 2) was 12 ± 2, the “WHOLE BODY RETENTION OF RADIO-IODINE” value ([3]; day 3) was 10 ± 4 and the “WHOLE BODY RETENTION OF RADIO-IODINE” value ([3]; day 4) was 8 ± 2. For the same compound, the “WHOLE BODY RETENTION OF RADIO-IODINE” value ([3]; day 5) was 7 ± 3, the “WHOLE BODY RETENTION OF RADIO-IODINE” value ([3]; day 6) was 7 ± 1 and the “WHOLE BODY RETENTION OF RADIO-IODINE” value ([3]; day 7) was 8 ± 2. For the same compound, the “WHOLE BODY RETENTION OF RADIO-IODINE” value ([3]; day 9) was 6 ± 3, the “WHOLE BODY RETENTION OF RADIO-IODINE” value ([3]; day 10) was 3 ± 4 and the “WHOLE BODY RETENTION OF RADIO-IODINE” value ([3]; day 11) was 2 ± 1. For the same compound, the “WHOLE BODY RETENTION OF RADIO-IODINE” value ([3]; day 13) was 2 ± 2, the “WHOLE BODY RETENTION OF RADIO-IODINE” value ([3]; day 14) was 1 ± 1 and the “Percent ^131I WBR” value [4] was 14 ± 3 percent administered dose. For the same compound, the “Percent ^131I in BLOOD” value [4] was 0.6 ± 0.05 percent administered dose, the “Percent ^131I in CARCAS” value [4] was 8 ± 0.5 percent administered dose and the “Percent ^131I in EXCRETA” value [4] was 81 ± 1 percent administered dose. The “Percent ^131I in LIVER + GUT” value [4] was 7 ± 0.5 percent administered dose and the “Percent ^131I in THYROID” value [4] was 4 ± 0.5 percent administered dose.

In the case of [C-]#N.[C-]#N.[C-]#N.[C-]#N.[C-]#N.[C-]#N.[C-]#N.[C-]#N.[C-]#N.[C-]#N.[C-]#N.[C-]#N.[C-]#N.[C-]#N.[C-]#N.[C-]#N.[C-]#N.[C-]#N.[Fe+2].[Fe+2].[Fe+2].[Fe+3].[Fe+3].[Fe+3].[Fe+3] [PB, ferric hexa-cyanoferrate (II)], the “gastro-intestinal and cardio-toxicity (histo-pathologic changes)” value [5] is given as “induces gastro-intestinal and cardio-toxicity”, the constipation [6] is given as “induce constipation in some subjects” and the “WHOLE BODY RETENTION - ^137Cs” value ([7]; day 0) is given as 100 percent administered dose. The “WHOLE BODY RETENTION - ^137Cs” value ([7]; day 1) was 61 ± 10 percent administered dose, the “WHOLE BODY RETENTION - ^137Cs” value ([7]; day 4) was 31 ± 4 percent administered dose and the “WHOLE BODY RETENTION - ^137Cs” value ([7]; day 8) was 21 ± 3 percent administered dose. For the same compound, the “WHOLE BODY RETENTION - ^137Cs” value ([7]; day 12) was 15 ± 2 percent administered dose, the “WHOLE BODY RETENTION - ^137Cs” value ([7]; day 16) was 11 ± 2 percent administered dose and the “WHOLE BODY RETENTION - ^137Cs” value ([7]; day 20) was 7 ± 1 percent administered dose. For the same compound, the “WHOLE BODY RETENTION - ^137Cs” value ([7]; day 24) was 6 ± 1 percent administered dose, the “WHOLE BODY RETENTION - ^137Cs” value ([7]; day 28) was 5 ± 1 percent administered dose and the “speed of removing *Cs from in vivo system” value ([7]; experimental animals) was “slow”. The “binding with *Cs” value ([8]; FIG. 4, neutral pH) was “weaker binding”, the “PERCENT BINDING CAPACITY of *Cs” value ([8]; pH 2) was 27 ± 2% and the “PERCENT BINDING CAPACITY of *Cs” value ([8]; pH 3) was 58 ± 0.7%. For the same compound, the “PERCENT BINDING CAPACITY of *Cs” value ([8]; pH 4) was 75 ± 0.4%, the “PERCENT BINDING CAPACITY of *Cs” value ([8]; pH 5) was 75 ± 0.3% and the “PERCENT BINDING CAPACITY of *Cs” value ([8]; pH 6) was 67 ± 0.6%. For the same compound, the “PERCENT BINDING CAPACITY of *Cs” value ([8]; pH 7) was 59 ± 0.9%, the “DNA damage in alkaline comet assay” value [9] was “do not induce any apparent DNA damage” and the “micronuclei formation, means±SE versus control” value ([10]; all the tested doses) was “not significantly different from control”. For the same compound, the “geno-toxicity, micronuclei formation” value ([10]; dose of 5 mg/100 g BW (equivalent to 3.5 g/d/70 Kg adult)) was “did not induce any toxicity” and the “geno-toxicity, micronuclei formation” value ([10]; five and ten times the dose of 5 mg/100 g BW) was “marginal increase in the formation of micronuclei”.
